Experimental data as given in PubChem BioAssay AID328 (DTP/NCI, 2004).
Values joined by “and” are separate entries in the source; they are usually repeats but may differ in a detail not shown here. Equal values may be shown once. Toxic doses and inconclusive results are not listed.

Tested on: BDF1 mice, P388 leukemia ip, median survival T/C
Test: NCI In Vivo Anticancer Drug Screen. Data for tumor model P388 Leukemia (intraperitoneal) in B6D2F1 (BDF1) mice
Conditions: endpoint: median survival time, higher = longer survival
Outline: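 Vehicle-dosed animals serve as the reference; survival of compound-dosed, tumour-implanted mice is divided by it.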

[1] = dose: 100.0 mg/kg/injection, schedule: Q01DX009 (ip), vehicle: saline
[2] = dose: 100.0 mg/kg/injection, schedule: Q04DX003 (ip), vehicle: saline
[3] = dose: 200.0 mg/kg/injection, schedule: Q01DX009 (ip), vehicle: saline
[4] = dose: 200.0 mg/kg/injection, schedule: Q04DX003 (ip), vehicle: saline
[5] = dose: 100.0 mg/kg/injection, schedule: Q01DX009 (ip), vehicle: saline with Tween-80
[6] = dose: 100.0 mg/kg/injection, schedule: Q04DX003 (ip), vehicle: saline with Tween-80
[7] = dose: 200.0 mg/kg/injection, schedule: Q01DX009 (ip), vehicle: saline with Tween-80
[8] = dose: 400.0 mg/kg/injection, schedule: Q04DX003 (ip), vehicle: saline
[9] = dose: 50.0 mg/kg/injection, schedule: Q01DX009 (ip), vehicle: saline with Tween-80

## COc1cccc2c1C(=O)c1c(O)c3c(c(O)c1C2=O)CC(O)(C(C)=O)CC3OC1CC(N)C(O)C(C)O1 (stereo not given)
dose: 0.03 mg/kg/injection, schedule: Q01DX010 (ip), vehicle: saline
  T/C: 118 % of control
dose: 0.06 mg/kg/injection, schedule: Q01DX010 (ip), vehicle: saline
  T/C: 118 % of control
dose: 0.12 mg/kg/injection, schedule: Q01DX010 (ip), vehicle: saline
  T/C: 118 % of control
dose: 0.25 mg/kg/injection, schedule: Q01DX009 (ip), vehicle: water
  T/C: 160 % of control
dose: 0.25 mg/kg/injection, schedule: Q01DX010 (ip), vehicle: saline
  T/C: 165 % of control and 175 % of control
dose: 0.5 mg/kg/injection, schedule: Q01DX009 (ip), vehicle: water
  T/C: 173 % of control
dose: 0.5 mg/kg/injection, schedule: Q01DX010 (ip), vehicle: saline
  T/C: 180 % of control and 195 % of control
dose: 1.0 mg/kg/injection, schedule: Q01DX009 (ip), vehicle: water
  T/C: 182 % of control
dose: 1.0 mg/kg/injection, schedule: Q01DX010 (ip), vehicle: saline
  T/C: 230 % of control and 200 % of control
dose: 2.0 mg/kg/injection, schedule: Q01DX009 (ip), vehicle: water
  T/C: 210 % of control
dose: 2.0 mg/kg/injection, schedule: Q01DX010 (ip), vehicle: saline
  T/C: 155 % of control and 190 % of control and 220 % of control
dose: 4.0 mg/kg/injection, schedule: Q01DX009 (ip), vehicle: water
  T/C: 157 % of control
dose: 4.0 mg/kg/injection, schedule: Q01DX010 (ip), vehicle: saline
  T/C: 180 % of control
dose: 7.5 mg/kg/injection, schedule: Q04DX003 (ip), vehicle: water
  T/C: 104 % of control
dose: 8.0 mg/kg/injection, schedule: Q01DX001 (ip), vehicle: saline
  T/C: 150 % of control
dose: 8.0 mg/kg/injection, schedule: Q01DX010 (ip), vehicle: saline
  T/C: 90 % of control and 95 % of control
dose: 15.0 mg/kg/injection, schedule: Q04DX003 (ip), vehicle: water
  T/C: 119 % of control
dose: 16.0 mg/kg/injection, schedule: Q01DX001 (ip), vehicle: saline
  T/C: 90 % of control
dose: 60.0 mg/kg/injection, schedule: Q04DX003 (ip), vehicle: water
  T/C: 167 % of control
dose: 240.0 mg/kg/injection, schedule: Q04DX003 (ip), vehicle: water
  T/C: 93 % of control
dose: 125.0 micrograms/kg/injection, schedule: Q01DX010 (ip), vehicle: saline
  T/C: 154 % of control
dose: 250.0 micrograms/kg/injection, schedule: Q01DX010 (ip), vehicle: saline
  T/C: 159 % of control

## C/C(=C\Br)CO
dose: 50.0 mg/kg/injection, schedule: Q04DX003 (ip), vehicle: saline
  T/C: 90 % of control
[1]
  T/C: 105 % of control
[2]
  T/C: 105 % of control
[3]
  T/C: 95 % of control
[4]
  T/C: 90 % of control

## COc1cc(OC)cc(C(=O)Br)c1
[5]
  T/C: 91 % of control
[6]
  T/C: 90 % of control
[7]
  T/C: 91 % of control
dose: 200.0 mg/kg/injection, schedule: Q04DX003 (ip), vehicle: saline with Tween-80
  T/C: 90 % of control
dose: 400.0 mg/kg/injection, schedule: Q01DX009 (ip), vehicle: saline with Tween-80
  T/C: 91 % of control
dose: 400.0 mg/kg/injection, schedule: Q04DX003 (ip), vehicle: saline with Tween-80
  T/C: 95 % of control

## CSc1ccc(N=C=C(c2ccccc2)c2ccccc2)cc1
dose: 6.25 mg/kg/injection, schedule: Q01DX009 (ip), vehicle: saline with Tween-80
  T/C: 95 % of control
dose: 12.5 mg/kg/injection, schedule: Q01DX009 (ip), vehicle: saline with Tween-80
  T/C: 90 % of control
dose: 25.0 mg/kg/injection, schedule: Q01DX009 (ip), vehicle: saline with Tween-80
  T/C: 90 % of control

## COC1C=CC=CC=C1
dose: 15.0 mg/kg/injection, schedule: Q01DX009 (ip), vehicle: saline with Tween-80
  T/C: 113 % of control
dose: 30.0 mg/kg/injection, schedule: Q01DX009 (ip), vehicle: saline with Tween-80
  T/C: 100 % of control
dose: 60.0 mg/kg/injection, schedule: Q01DX009 (ip), vehicle: saline with Tween-80
  T/C: 113 % of control

## Cc1ccc(C(=O)CC(O)(C(F)(F)F)C(F)(F)F)cc1
dose: 100.0 mg/kg/injection, schedule: Q01DX009 (ip), vehicle: other
  T/C: 100 % of control
dose: 200.0 mg/kg/injection, schedule: Q01DX009 (ip), vehicle: other
  T/C: 95 % of control
dose: 400.0 mg/kg/injection, schedule: Q01DX009 (ip), vehicle: other
  T/C: 121 % of control

## O=C(Nc1ccc(C(=O)O)cc1)Oc1ccc(N(CCCl)CCCl)cc1
dose: 12.0 mg/kg/injection, schedule: Q04DX003 (ip), vehicle: saline
  T/C: 163 % of control
dose: 19.0 mg/kg/injection, schedule: Q04DX003 (ip), vehicle: saline
  T/C: 154 % of control
dose: 29.0 mg/kg/injection, schedule: Q04DX003 (ip), vehicle: saline with Tween-80
  T/C: 200 % of control
dose: 45.0 mg/kg/injection, schedule: Q04DX003 (ip), vehicle: saline with Tween-80
  T/C: 235 % of control
dose: 66.0 mg/kg/injection, schedule: Q04DX003 (ip), vehicle: saline with Tween-80
  T/C: 163 % of control
[6]
  T/C: 245 % of control
dose: 150.0 mg/kg/injection, schedule: Q04DX003 (ip), vehicle: saline with Tween-80
  T/C: 190 % of control

## CCCNC(=O)OCC#CC#CCOC(=O)NCCC
dose: 100.0 mg/kg/injection, schedule: Q01DX009 (ip), vehicle: Klucel (hydroxypropylcellulose) (HPC)
  T/C: 86 % of control
dose: 100.0 mg/kg/injection, schedule: Q04DX003 (ip), vehicle: Klucel (hydroxypropylcellulose) (HPC)
  T/C: 90 % of control
dose: 200.0 mg/kg/injection, schedule: Q01DX009 (ip), vehicle: Klucel (hydroxypropylcellulose) (HPC)
  T/C: 100 % of control
dose: 200.0 mg/kg/injection, schedule: Q04DX003 (ip), vehicle: Klucel (hydroxypropylcellulose) (HPC)
  T/C: 95 % of control
dose: 400.0 mg/kg/injection, schedule: Q01DX009 (ip), vehicle: Klucel (hydroxypropylcellulose) (HPC)
  T/C: 104 % of control
dose: 400.0 mg/kg/injection, schedule: Q04DX003 (ip), vehicle: Klucel (hydroxypropylcellulose) (HPC)
  T/C: 113 % of control

## COc1ccc(CC2c3cc(OC)c(OC)cc3CCN2C)cc1OC (stereo not given)
dose: 50.0 mg/kg/injection, schedule: Q01DX005 (ip), vehicle: saline with Tween-80
  T/C: 90 % of control

## COC(=O)C1(C)CSCCC1=O (stereo not given)
[1]
  T/C: 105 % of control
[2]
  T/C: 100 % of control
[3]
  T/C: 105 % of control
[4]
  T/C: 100 % of control
dose: 400.0 mg/kg/injection, schedule: Q01DX009 (ip), vehicle: saline
  T/C: 95 % of control
[8]
  T/C: 95 % of control

## COC(=O)/C=C1\Sc2ccc(C(F)(F)F)cc2NC1=O
[9]
  T/C: 91 % of control
[5]
  T/C: 91 % of control
[7]
  T/C: 91 % of control

## O=c1nc(Oc2ccccc2)nc2ccccn12
[9]
  T/C: 105 % of control
[5]
  T/C: 97 % of control
[7]
  T/C: 102 % of control

## Cn1c(N)c(N=Nc2ccccc2Cl)c(=O)n(C)c1=O
[9]
  T/C: 98 % of control
[5]
  T/C: 99 % of control
[7]
  T/C: 100 % of control

## C[C@@]1(O)CCCC[C@H]1O
[1]
  T/C: 100 % of control
[2]
  T/C: 110 % of control
[3]
  T/C: 100 % of control
[4]
  T/C: 100 % of control
[8]
  T/C: 100 % of control

## COc1cc2ccc3c4cc5c(cc4c[n+](C)c3c2cc1OC)OCO5
dose: 20.0 mg/kg/injection, schedule: Q01DX009 (ip), vehicle: saline
  T/C: 122 % of control
dose: 40.0 mg/kg/injection, schedule: Q01DX009 (ip), vehicle: saline
  T/C: 154 % of control and 159 % of control
dose: 80.0 mg/kg/injection, schedule: Q01DX009 (ip), vehicle: saline
  T/C: 113 % of control
dose: 120.0 mg/kg/injection, schedule: Q01DX009 (ip), vehicle: saline
  T/C: 86 % of control

## NC(=S)N/N=C/c1ccc(O)cn1
dose: 18.8 mg/kg/injection, schedule: Q01DX009 (ip), vehicle: saline with Tween-80
  T/C: 189 % of control
dose: 25.0 mg/kg/injection, schedule: Q01DX001 (ip), vehicle: Klucel (hydroxypropylcellulose) (HPC)
  T/C: 100 % of control and 109 % of control
dose: 25.0 mg/kg/injection, schedule: Q01DX010 (ip), vehicle: saline
  T/C: 172 % of control
dose: 25.0 mg/kg/injection, schedule: Q04DX002 (ip), vehicle: Klucel (hydroxypropylcellulose) (HPC)
  T/C: 103 % of control
dose: 25.0 mg/kg/injection, schedule: Q04DX003 (ip), vehicle: Klucel (hydroxypropylcellulose) (HPC)
  T/C: 122 % of control
dose: 37.5 mg/kg/injection, schedule: Q01DX009 (ip), vehicle: saline with Tween-80
  T/C: 219 % of control
dose: 50.0 mg/kg/injection, schedule: Q01DX010 (ip), vehicle: saline
  T/C: 200 % of control
dose: 75.0 mg/kg/injection, schedule: Q01DX009 (ip), vehicle: saline with Tween-80
  T/C: 178 % of control
dose: 100.0 mg/kg/injection, schedule: Q01DX010 (ip), vehicle: saline
  T/C: 227 % of control
dose: 200.0 mg/kg/injection, schedule: Q01DX010 (ip), vehicle: saline
  T/C: 100 % of control
